Data from the NIST ThermoML archive (doi:10.1016/j.jct.2005.08.009).
Numbers after ± are expanded uncertainties.

How the values were obtained:
[1] = 101 kPa, Liquid
[2] = xn = mol fraction of the nth substance listed; settings: 101 kPa, Liquid, x2 = 0

Row | mass density ([1]; 298.15 K) | viscosity ([1]; 298.15 K) | mass density ([1]; 303.15 K) | viscosity ([1]; 303.15 K) | mass density ([1]; 308.15 K) | viscosity ([1]; 308.15 K) | mass density ([1]; 313.15 K) | viscosity ([1]; 313.15 K) | mass density ([1]; 318.15 K) | viscosity ([1]; 318.15 K) | viscosity ([2]; 298.15 K) | viscosity ([2]; 303.15 K) | viscosity ([2]; 308.15 K) | viscosity ([2]; 313.15 K) | viscosity ([2]; 318.15 K) | Structure (SMILES)
1 | 776.69 ± 1.9 kg/m3 | 0.3417 ± 0.0053 mPa·s | 771.89 ± 1.9 kg/m3 | 0.328 ± 0.0051 mPa·s | 765.46 ± 2 kg/m3 | 0.3129 ± 0.0049 mPa·s | 760.86 ± 2 kg/m3 | 0.3009 ± 0.0048 mPa·s | 754.76 ± 2 kg/m3 | 0.2899 ± 0.0047 mPa·s | – | – | – | – | – | CC#N [acetonitrile]
2 | – | – | – | – | – | – | – | – | – | – | 0.8901 ± 0.011 mPa·s | 0.7973 ± 0.01 mPa·s | 0.7193 ± 0.0093 mPa·s | 0.653 ± 0.0086 mPa·s | 0.5961 ± 0.008 mPa·s | O [water] + CC#N
